Results on two compounds are retold here after paper PMC5492227 (European journal of medicinal chemistry, 2017).

This experiment has as its target T1, EPAC1 (Homo sapiens, UniProt O95398).
T1 sequence (O95398 1-923): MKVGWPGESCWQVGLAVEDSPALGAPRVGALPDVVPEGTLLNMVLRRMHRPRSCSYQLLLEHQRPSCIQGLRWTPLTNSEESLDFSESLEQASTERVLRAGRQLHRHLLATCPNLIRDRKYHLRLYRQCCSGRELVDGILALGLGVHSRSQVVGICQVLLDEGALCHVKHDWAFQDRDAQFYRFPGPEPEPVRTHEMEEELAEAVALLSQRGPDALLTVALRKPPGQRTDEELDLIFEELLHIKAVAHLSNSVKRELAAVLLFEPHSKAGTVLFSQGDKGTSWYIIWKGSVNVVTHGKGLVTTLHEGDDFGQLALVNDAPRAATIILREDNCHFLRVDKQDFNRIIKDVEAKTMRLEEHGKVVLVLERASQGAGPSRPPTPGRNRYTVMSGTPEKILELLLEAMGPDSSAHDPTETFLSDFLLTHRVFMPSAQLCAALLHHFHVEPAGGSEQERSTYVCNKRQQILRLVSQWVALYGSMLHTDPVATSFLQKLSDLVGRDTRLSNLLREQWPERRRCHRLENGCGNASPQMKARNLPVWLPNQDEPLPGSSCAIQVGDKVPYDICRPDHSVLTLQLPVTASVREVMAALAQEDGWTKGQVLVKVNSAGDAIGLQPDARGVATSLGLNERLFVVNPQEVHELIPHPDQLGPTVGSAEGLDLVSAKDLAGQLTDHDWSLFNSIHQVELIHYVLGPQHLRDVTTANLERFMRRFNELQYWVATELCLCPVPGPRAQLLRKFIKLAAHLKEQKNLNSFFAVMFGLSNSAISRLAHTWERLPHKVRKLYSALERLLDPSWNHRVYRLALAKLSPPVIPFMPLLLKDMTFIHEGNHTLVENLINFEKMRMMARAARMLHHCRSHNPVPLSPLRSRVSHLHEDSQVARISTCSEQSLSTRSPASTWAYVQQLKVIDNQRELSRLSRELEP
Put plainly: biochemical. It is filed as biochemical.

Molecules are shown by their SMILES.

In the case of `N#C/C(=N\Nc1ccc(Cl)c(C(F)(F)F)c1)C(=O)c1cc(-c2ccccc2)on1` [Compound 14, N-(3-Trifluromethyl-4-chlorophenyl)-2-oxo-2-(5-phenylisoxazol-3-yl)acetohydrazonoyl cyanide], the “fold increase in potency compared to that of 1 (EPAC1)” value is recorded as “about 5 fold”.

The term IC50 denotes the concentration that gives 50% inhibition. With `N#C/C(=N\Nc1cccc(Cl)c1)C(=O)c1cc(-c2ccco2)on1` [Compound 25, N-(3-Chlorophenyl)-2-(5-(furan-2-yl)isoxazol-3-yl)-2-oxoacetohydrazonoyl cyanide], the IC50 (Rap1b-bGDP EPAC1 IC50, purified recombinant full-length EPAC1, 20 μM cAMP, mean ± SD of at least three independent experiments) came out at 3.6 µM.
